Laboratory results: patent publication US11618747B2, “LXR modulators with bicyclic core moiety” (OrsoBio, Inc., priority 2018, dated 2023)

How the values were obtained:
[1] = biological target: T1, ligand-binding domain (LBD) of LXRβ (Homo sapiens, UniProt P55055, DUP175-175); test: LXR Gal4 reporter transient transfection assay (LBD-M2H Gal4β); format: cell-based; settings: HEK293 cells, LXRβ LBD; read-out: LBD-M2H Gal4β (EC50 range)
T1 construct: LXRβ (amino acids 156-461); expressed in transfected cells; host or cells: HEK293
T1 sequence (P55055 with tags, fused parts or gaps DUP175-175 limits assumed): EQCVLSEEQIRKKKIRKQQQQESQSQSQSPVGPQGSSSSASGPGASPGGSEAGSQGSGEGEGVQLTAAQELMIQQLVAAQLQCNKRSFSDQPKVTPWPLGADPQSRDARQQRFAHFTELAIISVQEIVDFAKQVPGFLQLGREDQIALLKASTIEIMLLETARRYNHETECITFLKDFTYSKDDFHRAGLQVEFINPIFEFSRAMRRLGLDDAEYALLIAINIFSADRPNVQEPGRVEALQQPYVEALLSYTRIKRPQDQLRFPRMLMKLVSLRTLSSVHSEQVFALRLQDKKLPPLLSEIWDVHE
Protocol: (§1) The tested compounds were usually dissolved, tested and stored as 20 mM stock solutions in DMSO. Since sulfonyl acetic acid derivatives tend to decarboxylate under these conditions, these stock solutions were prepared, tested and stored as 20 mM DMSO stock solutions containing 100 mM trifluoroacetic Acid (5 equivalents). Sulfonyl acetic acid derivatives are shelf stable as solid at rt for long time as reported by Griesbrecht et al. (Synlett 2010:374) or Faucher et al. (J. Med. Chem. 2004; 47:18).
(§2) LXR Gal4 Reporter Transient Transfection Assays
(§3) LXRα and LXRβ activity status was determined via detection of interaction with coactivator and corepressor proteins in mammalian two-hybrid experiments (M2H). For this, via transient transfection the full length (FL) proteins of LXRα (amino acids 1-447; NP005684; SEQ ID NO:1) or LXRβ-(amino acids 1-461; NP009052; SEQ ID NO:2) or the ligand-binding domains (LBD) of LXRα (amino acids 155-447 SEQ ID NO:3) or LXRβ (amino acids 156-461; SEQ ID NO:4) were expressed from pCMV-AD (Stratagene) as fusions to the transcriptional activation domain of NFkB. As cofactors, domains of either the steroid receptor coactivator 1 (SRC1; amino acids 552-887; SEQ ID NO:5) or of the corepressor NCoR (amino acids 1906-2312; NP006302; SEQ ID NO:6) were expressed as fusions to the DNA binding domain of the yeast transcription factor GAL4 (from pCMV-BD; Stratagene). Interaction was monitored via activation of a coexpressed Firefly Luciferase Reporter gene under control of a promoter containing repetitive GAL4 response elements (vector pFRLuc; Stratagene). Transfection efficiency was controlled via cotransfection of constitutively active pRL-CMV Renila reniformis luciferase reporter (Promega). HEK293 cells were grown in minimum essential medium (MEM) with 2 mM L-glutamine and Earle's balanced salt solution supplemented with 8.3% fetal bovine serum, 0.1 mM non-essential amino acids, 1 mM sodium pyruvate, at 37° C. in 5% CO2. 3.5×10^4 cells/well were plated in 96-well cell culture plates in growth medium supplemented with 8.3% fetal bovine serum for 16-20 h to ˜90% confluency. For transfection, medium was taken off and LXR and cofactor expressing plasmids as well as the reporter plasmids are added in 30 μL OPTIMEM/well including polyethylene-imine (PEI) as vehicle. Typical amounts of plasmids transfected/well: pCMV-AD-LXR (5 ng), pCMV-BD-cofactor (5 ng), pFR-Luc (100 ng), pRL-CMV (0.5 ng). Compound stocks were prepared in DMSO, prediluted in MEM to a total volume of 120 μL, and added 4 h after addition of the transfection mixture (final vehicle concentration not exceeding 0.2%). Cells were incubated for additional 16 h, lysed for 10 min in 1× Passive Lysis Buffer (Promega) and Firefly and Renilla luciferase activities were measured sequentially in the same cell extract using buffers containing D-luciferine and coelenterazine, respectively. Measurements of luminescence were done in a BMG-luminometer.

[2] = biological target: T2, ligand-binding domain (LBD) of LXRα (Homo sapiens, UniProt Q13133); test: LXR Gal4 reporter transient transfection assay (LBD-M2H Gal4α); format: cell-based; settings: HEK293 cells, LXRα LBD; read-out: LBD-M2H Gal4α (EC50 range)
T2 construct: expressed in transfected cells; host or cells: HEK293
T2 sequence (Q13133 155-447): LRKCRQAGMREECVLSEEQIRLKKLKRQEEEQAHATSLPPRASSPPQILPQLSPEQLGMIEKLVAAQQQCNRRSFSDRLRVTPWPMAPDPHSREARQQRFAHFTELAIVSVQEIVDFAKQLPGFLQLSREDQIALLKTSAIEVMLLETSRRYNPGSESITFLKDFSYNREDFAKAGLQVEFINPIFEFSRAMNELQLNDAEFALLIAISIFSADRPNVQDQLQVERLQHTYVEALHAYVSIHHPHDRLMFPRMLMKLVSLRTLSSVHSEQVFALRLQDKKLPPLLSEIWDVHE
Protocol: as §1, §2, §3

[3] = biological target: T3, LXRβ ligand-binding domain (Homo sapiens, UniProt P55055, DUP175-175); test: TR-FRETβ activity assay (NCoA3 coactivator peptide recruitment); format: biochemical; settings: TR-FRET, 1 μM 24(S)-25-epoxycholesterol prestimulation; read-out: FRETβ (EC50 range)
T3 construct: amino acids 156-461; NP009052; made in house; host or cells: E. coli
T3 sequence (P55055 with tags, fused parts or gaps DUP175-175 limits assumed): T1 sequence (P55055 with tags, fused parts or gaps DUP175-175 limits assumed)
Summary of the method: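 Inverse agonism assessed by loss of coactivator recruitment, read as TR-FRET 665/615 nm after 1 h equilibration at 4 °C, in triplicate. Ten-point titration from 50 μM to 0.002 μM against LXRβ LBD (76 nM, GST fusion) prestimulated with 1 μM 24(S)-25-epoxycholesterol, with 400 nM NCoA3 peptide, pH 6.8. Sulfonyl acetic acids kept as 20 mM DMSO stocks with 100 mM TFA.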

SMILES | EC50 [1] [nM] | EC50 [2] [nM] | EC50 [3] [nM]
N#Cc1nccnc1-c1c(-c2cccs2)n(S(=O)(=O)c2ccc(Cl)cc2)c2ccccc12 [20/7] | < 100 | 100 to 1000 | 1000 to 10000
Cc1ccc(S(=O)(=O)n2c(-c3cccc(-c4cccc(C(=O)O)c4)c3)c(-c3ccsc3C#N)c3ccccc32)cc1 [30/1] | < 100 | 100 to 1000 | 100 to 1000
N#Cc1sccc1-c1c(-c2cccc(OCCC(=O)O)n2)n(S(=O)(=O)c2ccc(Cl)cc2)c2ccccc12 [Example 31, 3-((6-(1-((4-Chlorophenyl)sulfonyl)-3-(2-cyanothiophen-3-yl)-1H-indol-2-yl)pyridin-2-yl)oxy)propanoic Acid] | 100 to 1000 | 100 to 1000 | 1000 to 10000
N#Cc1sccc1-c1c(-c2cccc(C3CC3C(=O)O)c2)n(S(=O)(=O)C2CC2)c2ccccc12 (stereo not drawn) [30/12] | 100 to 1000 | 1000 to 10000 | 1000 to 10000
COc1ccc(S(=O)(=O)n2c(-c3ccccc3)c(-c3cc(C)sc3C#N)c3ccccc32)cc1 [20/23] | 100 to 1000 | 100 to 1000 | 1000 to 10000
N#Cc1sccc1-c1c(-c2cccs2)n(S(=O)(=O)c2cccc3ccccc23)c2ccccc12 [1/27] | < 100 | 100 to 1000 | 1000 to 10000
COc1ccc(S(=O)(=O)n2c(-c3ccccc3)c(C3=C(C#N)c4ccccc4CC3)c3ccccc32)cc1 [20/19] | 100 to 1000 | 100 to 1000 | > 10000
N#Cc1sccc1-c1c(-c2cccs2)n(S(=O)(=O)c2ccc(Cl)cc2)c2cc(OCCCCC(=O)O)ccc12 [15/5] | < 100 | < 100 | 1000 to 10000
N#Cc1sccc1-c1c(-c2cccc(OCC(=O)O)c2)n(S(=O)(=O)c2ccc(Cl)cc2)c2ccccc12 [3/51] | 100 to 1000 | 100 to 1000 | 1000 to 10000
N#Cc1sccc1-c1c(-c2cccs2)n(S(=O)(=O)c2ccc(Cl)cc2)c2ccc(OCCCCC(=O)O)cc12 [15/2] | 100 to 1000 | 100 to 1000 | > 10000
N#Cc1sccc1-c1c(-c2cc(Cl)cc(C3CC3C(=O)O)c2)n(S(=O)(=O)c2ccc(Cl)cc2)c2ccccc12 (stereo not drawn) [30/9] | < 100 | 100 to 1000 | 1000 to 10000
Cc1ccc(S(=O)(=O)n2c(-c3cccc(C4CC4C(=O)O)c3)c(-c3ccsc3F)c3ccccc32)cc1 (stereo not drawn) [30/14] | 100 to 1000 | 100 to 1000 | 1000 to 10000
COc1ccc(S(=O)(=O)n2c(-c3ccccc3)c(-c3ccsc3OC)c3ccccc32)cc1 [20/22] | 100 to 1000 | 100 to 1000 | 100 to 1000
N#Cc1sccc1-c1c(-c2cccc(CCCC(=O)O)c2)n(S(=O)(=O)c2ccc(Cl)cc2)c2ccccc12 [30/5] | < 100 | 100 to 1000 | 1000 to 10000
Cc1ccc(S(=O)(=O)n2c(-c3cccc(C(C)(C)C(=O)O)c3)c(-c3ccsc3C#N)c3ccccc32)cc1 [3/20] | < 100 | 100 to 1000 | 1000 to 10000
N#Cc1sccc1-c1c(-c2cccc(N3CC(C(=O)O)C3)n2)n(S(=O)(=O)c2ccc(Cl)cc2)c2ccccc12 [30/6] | 100 to 1000 | 100 to 1000 | 1000 to 10000
